Some test systems named below: ACHN renal; CAKI-1 renal; CCRF-CEM leukemia; COLO 205 colon; HS 578T breast; MDA-MB-435; OVCAR-4 ovarian; OVCAR-5 ovarian; RXF 393 renal; SK-MEL-5 melanoma.
Assay in all cases: inhibition of tumour cell growth, NCI panel, 48 h

“And” between values parts separate entries of the source, which are not always exact repeats. Equal values may be shown once.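 Following 48 hours of exposure in 96-well plates, responses at five concentrations were used to interpolate endpoints linearly. GI50 marks 50% less growth. The concentration for full growth arrest is given as TGI.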 Some results are limits rather than exact numbers.

As for `CCCC(=O)Nc1cn(COC)c(C(=O)N2C[C@H]3C[C@@]34C2=CC(=O)c2[nH]cc(C)c24)n1`, the TGI with ACHN renal was 50 µM and > 100 µM; in the test on CAKI-1 renal, 17.3 µM and > 100 µM; in the test on COLO 205 colon it was 15.9 µM and 32.4 µM; in the test on HS 578T breast it was 43.1 µM and > 100 µM; in the test with MDA-MB-435, 26.2 µM and > 100 µM; with OVCAR-4 ovarian, 30 µM and 36.5 µM. Also, the TGI in the test with OVCAR-5 ovarian was 50 µM and > 100 µM; in the test on RXF 393 renal, 26.9 µM and 8.82 µM; in the test with SK-MEL-5 melanoma it was 16 µM and 9.93 µM. The GI50 with CAKI-1 renal was 5.42 µM; with CCRF-CEM leukemia, 0.555 µM; in the test on COLO 205 colon, 4.41 µM; with HS 578T breast, 20.9 µM; in the test on MDA-MB-435, 13.4 µM; with OVCAR-5 ovarian, 6.13 µM. In addition, the GI50 in the test with RXF 393 renal was 3.05 µM; in the test on SK-MEL-5 melanoma, 2.53 µM.
On to `COc1ccc(-c2cn(-c3cc(OC)c(OC)c(OC)c3)c(=O)n2-c2ccccc2)cc1`, for which the GI50 with ACHN renal is > 100 µM; in the test on CAKI-1 renal it was > 100 µM; in the test on CCRF-CEM leukemia, > 100 µM; with COLO 205 colon, > 100 µM; with HS 578T breast, 53.2 µM; in the test with MDA-MB-435, > 100 µM. Besides, the GI50 in the test with OVCAR-4 ovarian was 51.7 µM; in the test on OVCAR-5 ovarian it was > 100 µM; in the test on RXF 393 renal it was 45.4 µM; in the test on SK-MEL-5 melanoma, 21.5 µM. For the same compound, the TGI with ACHN renal, in the test on CAKI-1 renal, with CCRF-CEM leukemia, in the test with COLO 205 colon, with HS 578T breast and in the test with MDA-MB-435 was > 100 µM in each case. In addition, the TGI in the test on OVCAR-4 ovarian, with OVCAR-5 ovarian, in the test with RXF 393 renal and in the test with SK-MEL-5 melanoma was > 100 µM throughout.
With `CN1CCN(CCCOc2ccc3ncnc(Nc4ccc(Oc5cccc(F)c5)c(Cl)c4)c3c2)CC1`, the GI50 was 1.02 µM with ACHN renal; 1.52 µM with CAKI-1 renal; 1.97 µM in the test on CCRF-CEM leukemia; 1.86 µM with COLO 205 colon; 1.76 µM with HS 578T breast; 1.67 µM in the test with MDA-MB-435. Also, the GI50 in the test on OVCAR-4 ovarian was 1.62 µM; with OVCAR-5 ovarian, 1.67 µM; in the test with RXF 393 renal, 1.56 µM; with SK-MEL-5 melanoma, 1.62 µM. Also, the TGI with ACHN renal amounted to 2.19 µM; in the test on CAKI-1 renal, 3.1 µM; in the test on CCRF-CEM leukemia, 8.21 µM; in the test on COLO 205 colon, 3.64 µM; in the test on HS 578T breast, 4.26 µM; with MDA-MB-435, 3.19 µM. The TGI in the test on OVCAR-4 ovarian was determined as 3.6 µM; in the test with OVCAR-5 ovarian, 3.29 µM; in the test with RXF 393 renal it was 3.1 µM; with SK-MEL-5 melanoma it was 3.01 µM.
For `NCCn1c2c(c3ccccc3c1=O)C(=O)c1ccccc1-2`, the GI50 in the test on ACHN renal is < 0.0453 µM; with CAKI-1 renal, 0.129 µM; in the test with CCRF-CEM leukemia it was 0.33 µM; in the test with COLO 205 colon, 0.605 µM; in the test on HS 578T breast it was 1.58 µM; in the test with MDA-MB-435 it was 0.897 µM. In addition, the GI50 in the test on OVCAR-4 ovarian is 0.982 µM; in the test on OVCAR-5 ovarian it was 0.674 µM; in the test on RXF 393 renal, 1.87 µM; with SK-MEL-5 melanoma, 0.386 µM. In addition, the TGI was 0.31 µM in the test on ACHN renal; 0.887 µM with CAKI-1 renal; 1.74 µM in the test with CCRF-CEM leukemia; 3.99 µM in the test with COLO 205 colon; 6.66 µM with HS 578T breast; 2.51 µM in the test on MDA-MB-435. Moreover, the TGI in the test on OVCAR-4 ovarian amounted to 3.48 µM; in the test with OVCAR-5 ovarian, 2.57 µM; in the test with RXF 393 renal, 6.55 µM; with SK-MEL-5 melanoma it was 1.9 µM.
Regarding `O=C(Nc1nc2ccc(F)cc2s1)c1cccnc1Nc1ccc(Cl)cc1Cl`, the GI50 was 3.35 µM with ACHN renal; 1.91 µM in the test on CAKI-1 renal; 1.82 µM in the test on CCRF-CEM leukemia; 1.72 µM with COLO 205 colon; 2.92 µM in the test with HS 578T breast; 3.04 µM in the test on MDA-MB-435. For the same compound, the GI50 with OVCAR-4 ovarian was 1.57 µM; with OVCAR-5 ovarian it was 7.71 µM; in the test with RXF 393 renal, 3.31 µM; in the test with SK-MEL-5 melanoma, 1.87 µM. Moreover, the TGI is 13.7 µM in the test with ACHN renal; 8.71 µM in the test with CAKI-1 renal; 12.6 µM in the test with CCRF-CEM leukemia; 3.81 µM with COLO 205 colon; 19.7 µM in the test with HS 578T breast; 14.3 µM in the test on MDA-MB-435. Besides, the TGI with OVCAR-4 ovarian is > 44.5 µM; in the test with OVCAR-5 ovarian, 28.9 µM; in the test with RXF 393 renal it was 11.7 µM; with SK-MEL-5 melanoma, 6.11 µM.
For `Fc1ccc(-c2cc(-c3cn[nH]c3-c3ccccn3)ccn2)cc1`, the GI50 in the test with ACHN renal, with CAKI-1 renal, in the test on CCRF-CEM leukemia, in the test with COLO 205 colon, in the test with HS 578T breast and with MDA-MB-435 was > 25 µM throughout. Also, the GI50 with OVCAR-4 ovarian, in the test on OVCAR-5 ovarian, with RXF 393 renal and in the test with SK-MEL-5 melanoma was > 25 µM each time. Besides, the TGI with ACHN renal, in the test on CAKI-1 renal, with CCRF-CEM leukemia, in the test on COLO 205 colon, with HS 578T breast and in the test on MDA-MB-435 was > 25 µM in each case. The TGI with OVCAR-4 ovarian, in the test with OVCAR-5 ovarian, with RXF 393 renal and in the test on SK-MEL-5 melanoma was > 25 µM each time.
Take `Cc1ccc2c(C(C[N+](=O)[O-])c3ccco3)c(-c3ccccc3)[nH]c2c1` (configuration not stated): the GI50 in the test on ACHN renal was 41.4 µM; in the test with CAKI-1 renal, 5.63 µM; in the test with CCRF-CEM leukemia, 34.1 µM; in the test on COLO 205 colon, 31.7 µM; with HS 578T breast, 17.5 µM; in the test on MDA-MB-435, 3.04 µM. The GI50 with OVCAR-4 ovarian was 69 µM; in the test on OVCAR-5 ovarian, > 100 µM; in the test with RXF 393 renal, 32.2 µM; in the test on SK-MEL-5 melanoma, 29.7 µM. Besides, the TGI in the test with ACHN renal is > 100 µM; with CAKI-1 renal, > 100 µM; in the test on CCRF-CEM leukemia, > 100 µM; in the test with COLO 205 colon, > 100 µM; with HS 578T breast, > 100 µM; with MDA-MB-435 it was 10.8 µM. Also, the TGI with OVCAR-4 ovarian, in the test on OVCAR-5 ovarian, in the test with RXF 393 renal and with SK-MEL-5 melanoma was > 100 µM each time.

These data come from PubChem BioAssay (NCI).
